In patent EP4667483A1, “HUMAN TRANSFERRIN RECEPTOR-BINDING PEPTIDE” (JCR Pharmaceuticals Co., Ltd., priority 2023, dated 2024):
Numbered stars: 1 amine (or outer) side, 2 acyl side, 3 side chain; on linkers, the order of the positions; unused ones are H or OH. Bridge positions count the residues as written; N and C are the ends. Square brackets hold non-standard residues; d marks the D form. Peptide text beside a SMILES is read from it. * marks the point of attachment. Trp(1-CH2COOH) = N[C@@H](Cc1cn(CC(=O)O)c2ccccc12)C(=O)O; NMePhe(4-COOH) = CN[C@@H](Cc1ccc(C(=O)O)cc1)C(=O)O; X1 = O=C([C@H](Cc1cccc(C(=O)[*:3])c1)N[*:1])[*:2]; Nle(6-morpholino) = N[C@@H](CCCCN1CCOCC1)C(=O)O; Phe(3-COOH) = N[C@@H](Cc1cccc(C(=O)O)c1)C(=O)O; Trp(7-aza) = N[C@@H](Cc1c[nH]c2ncccc12)C(=O)O; NMePhe(3-Cl) = CN[C@@H](Cc1cccc(Cl)c1)C(=O)O; Trp(1-Me) = Cn1cc(C[C@H](N)C(=O)O)c2ccccc21; 3Pal(6-NH2) = Nc1ccc(C[C@H](N)C(=O)O)cn1; NMeW = CN[C@@H](Cc1c[nH]c2ccccc12)C(=O)O; NMeY = CN[C@@H](Cc1ccc(O)cc1)C(=O)O; Nva(3-Et) = CCC(CC)[C@H](N)C(=O)O; NMeF = CN[C@@H](Cc1ccccc1)C(=O)O; 4Pal = N[C@@H](Cc1ccncc1)C(=O)O; PEG4 = NCCOCCOCCOCCOCCC(=O)O; Carboxymethyl = O=C(O)C*

Tests used:
[1] = target: T1, human transferrin receptor (hTfR) (Homo sapiens, UniProt P02786); test: SPR measurement under pH 7.4 conditions (Biacore T200, CM3 chip, hTfR captured by His Tag antibody); assay type: binding; settings: SPR, pH 7.4; peptide with the linker named in the table; read-out: hTfR SPR pH7.4 KD
[2] = target: T1, human transferrin receptor (hTfR); test: SPR measurement under pH 6.0 conditions (Biacore T200, NTA chip, immobilized hTfR); assay type: binding; settings: SPR, pH 6.0; peptide with the linker named in the table; read-out: hTfR SPR pH6.0 KD

T1 sequence (P02786 whole entry): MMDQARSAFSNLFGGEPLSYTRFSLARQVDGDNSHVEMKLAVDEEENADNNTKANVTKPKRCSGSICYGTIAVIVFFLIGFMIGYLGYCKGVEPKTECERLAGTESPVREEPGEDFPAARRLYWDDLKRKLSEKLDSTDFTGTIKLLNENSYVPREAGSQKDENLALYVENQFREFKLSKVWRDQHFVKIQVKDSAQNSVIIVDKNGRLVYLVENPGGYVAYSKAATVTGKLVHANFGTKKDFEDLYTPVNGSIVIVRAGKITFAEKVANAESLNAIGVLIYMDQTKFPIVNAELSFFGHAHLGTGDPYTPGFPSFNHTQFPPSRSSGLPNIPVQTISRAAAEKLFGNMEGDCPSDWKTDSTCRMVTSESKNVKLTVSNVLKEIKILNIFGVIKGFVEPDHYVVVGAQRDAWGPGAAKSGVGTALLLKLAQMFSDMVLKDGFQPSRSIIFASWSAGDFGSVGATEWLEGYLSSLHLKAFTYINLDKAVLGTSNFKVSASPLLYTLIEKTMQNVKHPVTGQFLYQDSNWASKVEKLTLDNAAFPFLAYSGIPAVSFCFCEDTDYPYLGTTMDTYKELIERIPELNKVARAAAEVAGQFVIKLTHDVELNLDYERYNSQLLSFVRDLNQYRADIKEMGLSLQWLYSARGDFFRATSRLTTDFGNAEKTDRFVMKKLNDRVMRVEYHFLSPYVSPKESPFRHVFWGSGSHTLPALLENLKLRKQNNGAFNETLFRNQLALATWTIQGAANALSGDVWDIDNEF

| SMILES | Kd [1] | Kd [2] |
| --- | --- | --- |
| CCC(CC)[C@@H]1NC(=O)[C@H](Cc2ccc(OCC(=O)O)cc2)NC(=O)[C@H](Cc2ccc(O)cc2)NC(=O)[C@H](CC(N)=O)NC(=O)[C@H](Cc2cn(CC(=O)O)c3ccccc23)NC(=O)[C@H](C(C)C)NC(=O)[C@H](Cc2cccc(Cl)c2)N(C)C(=O)[C@H](C(C)C)NC(=O)[C@H](C)NC(=O)CSC[C@@H](C(=O)NCCOCCOCCOCCOCCC(N)=O)NC(=O)[C@H](Cc2ccc(O)cc2)N(C)C(=O)[C@H](Cc2cccc(C(=O)O)c2)NC(=O)[C@H](CCCCN2CCOCC2)NC(=O)[C@H](CCCCN2CCOCC2)NC(=O)[C@H]([C@@H](C)CC)NC1=O [compound 109] ({CH2CO}-AV[NMePhe(3-Cl)]V[Trp(1-CH2COOH)]NYY(Carboxymethyl)[Nva(3-Et)]I[Nle(6-morpholino)][Nle(6-morpholino)][Phe(3-COOH)][NMeY]C[PEG4]-NH2; thioether N-15) | 6.99 nM | 11.1 nM |
| CCC(CC)[C@@H]1NC(=O)[C@H](Cc2ccc(OCC(=O)O)cc2)NC(=O)[C@H](Cc2ccc(O)cc2)NC(=O)[C@H](CC(N)=O)NC(=O)[C@H](Cc2c[nH]c3ccccc23)NC(=O)[C@H](C(C)C)NC(=O)[C@H](Cc2cccc(Cl)c2)N(C)C(=O)[C@H](C(C)C)NC(=O)[C@H](C)NC(=O)CSC[C@@H](C(=O)NCCOCCOCCOCCOCCC(N)=O)NC(=O)[C@H](Cc2ccc(C(=O)O)cc2)N(C)C(=O)[C@H](Cc2cccc(C(=O)NCCOCCOCCOCCOCCC(=O)O)c2)NC(=O)[C@H](CCCNC(=N)N)NC(=O)[C@H](CCC(N)=O)NC(=O)[C@H]([C@@H](C)CC)NC1=O [compound 110] ({CH2CO}-AV[NMePhe(3-Cl)]VWNYY(Carboxymethyl)[Nva(3-Et)]IQR[X1](PEG4)[NMePhe(4-COOH)]C[PEG4]-NH2; thioether N-15) | 7.46 nM | 12.8 nM |
| CCC(CC)[C@@H]1NC(=O)[C@H](Cc2ccc(OC)cc2)NC(=O)[C@H](Cc2ccc(O)cc2)NC(=O)[C@H](CC(N)=O)NC(=O)[C@H](Cc2c[nH]c3ccccc23)NC(=O)[C@H](C(C)C)NC(=O)[C@H](Cc2cccc(Cl)c2)N(C)C(=O)[C@H](C(C)C)NC(=O)[C@H](C)NC(=O)CSC[C@@H](C(=O)NCCOCCOCCOCCOCCC(N)=O)NC(=O)[C@H](Cc2ccc(C(=O)O)cc2)N(C)C(=O)[C@H](Cc2cccc(C(=O)NCCOCCOCCOCCOCCC(=O)O)c2)NC(=O)[C@H](CCCNC(=N)N)NC(=O)[C@H](CCC(N)=O)NC(=O)[C@H]([C@@H](C)CC)NC1=O [compound 111] ({CH2CO}-AV[NMePhe(3-Cl)]VWNYY(Me)[Nva(3-Et)]IQR[X1](PEG4)[NMePhe(4-COOH)]C[PEG4]-NH2; thioether N-15) | 2.06 nM | 3.47 nM |
| CCC(CC)[C@@H]1NC(=O)[C@H](Cc2ccc(OCC(=O)O)cc2)NC(=O)[C@H](Cc2ccc(O)cc2)NC(=O)[C@H](CC(N)=O)NC(=O)[C@H](Cc2c[nH]c3ccccc23)NC(=O)[C@H](C(C)C)NC(=O)[C@H](Cc2cccc(Cl)c2)N(C)C(=O)[C@H](C(C)C)NC(=O)[C@H](C)NC(=O)CSC[C@@H](C(=O)NCCOCCOCCOCCOCCC(N)=O)NC(=O)[C@H](Cc2ccc(O)cc2)N(C)C(=O)[C@H](Cc2cccc(C(=O)NCCOCCOCCOCCOCCC(=O)O)c2)NC(=O)[C@H](CCCNC(=N)N)NC(=O)[C@H](CCC(N)=O)NC(=O)[C@H]([C@@H](C)CC)NC1=O [compound 112] ({CH2CO}-AV[NMePhe(3-Cl)]VWNYY(Carboxymethyl)[Nva(3-Et)]IQR[X1](PEG4)[NMeY]C[PEG4]-NH2; thioether N-15) | 3.53 nM | 11.5 nM |
| CCC(CC)[C@@H]1NC(=O)[C@H](Cc2ccc(OC)cc2)NC(=O)[C@H](Cc2ccc(O)cc2)NC(=O)[C@H](CC(N)=O)NC(=O)[C@H](Cc2c[nH]c3ncccc23)NC(=O)[C@H](C(C)C)NC(=O)[C@H](Cc2cccc(Cl)c2)N(C)C(=O)[C@H](C(C)C)NC(=O)[C@H](C)NC(=O)CSC[C@@H](C(=O)NCCOCCOCCOCCOCCC(N)=O)NC(=O)[C@H](Cc2ccc(C(=O)O)cc2)N(C)C(=O)[C@H](Cc2ccncc2)NC(=O)[C@H](CCCNC(=N)N)NC(=O)[C@H](CCCCN2CCOCC2)NC(=O)[C@H]([C@@H](C)CC)NC1=O [compound 114] ({CH2CO}-AV[NMePhe(3-Cl)]V[Trp(7-aza)]NYY(Me)[Nva(3-Et)]I[Nle(6-morpholino)]R[4Pal][NMePhe(4-COOH)]C[PEG4]-NH2; thioether N-15) | 1.33 nM | 10.6 nM |
| CC[C@H](C)[C@@H]1NC(=O)[C@H](Cc2ccc(OC)cc2)NC(=O)[C@H](Cc2ccc(N)nc2)NC(=O)[C@H](CC(N)=O)NC(=O)[C@H](Cc2c[nH]c3ccccc23)NC(=O)[C@H](C(C)C)NC(=O)[C@H](Cc2cccc(Cl)c2)N(C)C(=O)[C@H](C(C)C)NC(=O)[C@H](C)NC(=O)CSC[C@@H](C(=O)NCCOCCOCCOCCOCCC(N)=O)NC(=O)[C@H](Cc2ccc(C(=O)O)cc2)N(C)C(=O)[C@H](Cc2cccc(C(=O)NCCOCCOCCOCCOCCC(=O)O)c2)NC(=O)[C@H](CCCNC(=N)N)NC(=O)[C@H](CCC(N)=O)NC(=O)[C@H]([C@@H](C)CC)NC1=O [compound 115] ({CH2CO}-AV[NMePhe(3-Cl)]VWN[3Pal(6-NH2)]Y(Me)IIQR[X1](PEG4)[NMePhe(4-COOH)]C[PEG4]-NH2; thioether N-15) | 1.84 nM | 12.6 nM |
| CC[C@H](C)[C@@H]1NC(=O)[C@H](Cc2ccc(OCC(=O)O)cc2)NC(=O)[C@H](Cc2ccc(N)nc2)NC(=O)[C@H](CC(N)=O)NC(=O)[C@H](Cc2c[nH]c3ccccc23)NC(=O)[C@H](C(C)C)NC(=O)[C@H](Cc2cccc(Cl)c2)N(C)C(=O)[C@H](C(C)C)NC(=O)[C@H](C)NC(=O)CSC[C@@H](C(=O)NCCOCCOCCOCCOCCC(N)=O)NC(=O)[C@H](Cc2ccc(C(=O)O)cc2)N(C)C(=O)[C@H](Cc2cccc(C(=O)NCCOCCOCCOCCOCCC(=O)O)c2)NC(=O)[C@H](CCCNC(=N)N)NC(=O)[C@H](CCC(N)=O)NC(=O)[C@H]([C@@H](C)CC)NC1=O [compound 116] ({CH2CO}-AV[NMePhe(3-Cl)]VWN[3Pal(6-NH2)]Y(Carboxymethyl)IIQR[X1](PEG4)[NMePhe(4-COOH)]C[PEG4]-NH2; thioether N-15) | 8.49 nM | 35.2 nM |

More lines, now with the values ahead:

| Kd [1] | Kd [2] | SMILES |
| --- | --- | --- |
| 5.8 nM | 13.2 nM | CCC(CC)[C@@H]1NC(=O)[C@H](Cc2ccc(O)cc2)NC(=O)[C@H](Cc2ccc(O)cc2)NC(=O)[C@H](CC(N)=O)NC(=O)[C@H](Cc2c[nH]c3ccccc23)N(C)C(=O)[C@H](C(C)C)NC(=O)[C@H](Cc2ccccc2)N(C)C(=O)[C@H](C(C)C)NC(=O)[C@H](C)NC(=O)CSC[C@@H](C(=O)NCCOCCOCCOCCOCCC(N)=O)NC(=O)[C@H](Cc2ccc(O)cc2)N(C)C(=O)[C@H](Cc2cccc(C(=O)NCCOCCOCCOCCOCCC(=O)O)c2)NC(=O)[C@H](CCCNC(=N)N)NC(=O)[C@H](CCCCN)NC(=O)[C@H]([C@@H](C)CC)NC1=O [compound 120] ({CH2CO}-AV[NMeF]V[NMeW]NYY[Nva(3-Et)]IKR[X1](PEG4)[NMeY]C[PEG4]-NH2; thioether N-15) |
| 5.19 nM | 15.3 nM | CCC(CC)[C@@H]1NC(=O)[C@H](Cc2ccc(O)cc2)NC(=O)[C@H](Cc2ccc(O)cc2)NC(=O)[C@H](CC(N)=O)NC(=O)[C@H](Cc2c[nH]c3ccccc23)N(C)C(=O)[C@H](C(C)C)NC(=O)[C@H](Cc2ccccc2)N(C)C(=O)[C@H](C(C)C)NC(=O)[C@H](C)NC(=O)CSC[C@@H](C(=O)NCCOCCOCCOCCOCCC(N)=O)NC(=O)[C@H](Cc2ccc(C(=O)O)cc2)N(C)C(=O)[C@H](Cc2cccc(C(=O)NCCOCCOCCOCCOCCC(=O)O)c2)NC(=O)[C@H](CCCNC(=N)N)NC(=O)[C@H](CCCCN)NC(=O)[C@H]([C@@H](C)CC)NC1=O [compound 122] ({CH2CO}-AV[NMeF]V[NMeW]NYY[Nva(3-Et)]IKR[X1](PEG4)[NMePhe(4-COOH)]C[PEG4]-NH2; thioether N-15) |
| 1.57 nM | 5.22 nM | CCC(CC)[C@@H]1NC(=O)[C@H](Cc2ccc(O)cc2)NC(=O)[C@H](Cc2ccc(O)cc2)NC(=O)[C@H](CC(N)=O)NC(=O)[C@H](Cc2cn(C)c3ccccc23)NC(=O)[C@H](C(C)C)NC(=O)[C@H](Cc2cccc(Cl)c2)N(C)C(=O)[C@H](C(C)C)NC(=O)[C@H](C)NC(=O)CSC[C@@H](C(=O)NCCOCCOCCOCCOCCC(N)=O)NC(=O)[C@H](Cc2ccc(O)cc2)N(C)C(=O)[C@H](Cc2ccncc2)NC(=O)[C@H](CCCNC(=N)N)NC(=O)[C@H](CCCCN)NC(=O)[C@H]([C@@H](C)CC)NC1=O [compound 127] ({CH2CO}-AV[NMePhe(3-Cl)]V[Trp(1-Me)]NYY[Nva(3-Et)]IKR[4Pal][NMeY]C[PEG4]-NH2; thioether N-15) |
| 1.1 nM | 3.23 nM | CCC(CC)[C@@H]1NC(=O)[C@H](Cc2ccc(OC)cc2)NC(=O)[C@H](Cc2ccc(O)cc2)NC(=O)[C@H](CC(N)=O)NC(=O)[C@H](Cc2cn(C)c3ccccc23)NC(=O)[C@H](C(C)C)NC(=O)[C@H](Cc2cccc(Cl)c2)N(C)C(=O)[C@H](C(C)C)NC(=O)[C@H](C)NC(=O)CSC[C@@H](C(=O)NCCOCCOCCOCCOCCC(N)=O)NC(=O)[C@H](Cc2ccc(O)cc2)N(C)C(=O)[C@H](Cc2ccncc2)NC(=O)[C@H](CCCNC(=N)N)NC(=O)[C@H](CCCCN)NC(=O)[C@H]([C@@H](C)CC)NC1=O [compound 128] ({CH2CO}-AV[NMePhe(3-Cl)]V[Trp(1-Me)]NYY(Me)[Nva(3-Et)]IKR[4Pal][NMeY]C[PEG4]-NH2; thioether N-15) |
| 0.678 nM | 1.74 nM | CC[C@H](C)[C@@H]1NC(=O)[C@H](Cc2ccc(OC)cc2)NC(=O)[C@H](Cc2ccc(O)cc2)NC(=O)[C@H](CC(N)=O)NC(=O)[C@H](Cc2cn(C)c3ccccc23)NC(=O)[C@H](C(C)C)NC(=O)[C@H](Cc2cccc(Cl)c2)N(C)C(=O)[C@H](C(C)C)NC(=O)[C@H](C)NC(=O)CSC[C@@H](C(=O)NCCOCCOCCOCCOCCC(N)=O)NC(=O)[C@H](Cc2ccc(O)cc2)N(C)C(=O)[C@H](Cc2ccncc2)NC(=O)[C@H](CCCNC(=N)N)NC(=O)[C@H](CCCCN)NC(=O)[C@H]([C@@H](C)CC)NC1=O [compound 130] |
